Patent US20210221784A1, “COMPOUNDS AND COMPOSITIONS FOR THE TREATMENT OF PAIN” (Université de Strasbourg, priority 2018, published 2021)

Key:
[1] = molecular target: T1, hNPFFR2 (Homo sapiens, UniProt Q9Y5X5); test: Radioligand binding competition, membranes from CHO cells expressing hNPFFR2; conditions: 0.015 nM [D-Tyr1[125I], N-MePhe3]-NPFF, 1 hr at 25° C.; for Ki: read-out: NPFF2-R Ki
T1 construct: expressed in transfected cells; membranes
Method: (§1) Competition experiments with membranes from CHO cells stably expressing hNPFFR1 and hNPFFR2 were performed essentially as described in Elhabazi, K., et al. Neuropharmacology, 2013. 75C, 164-171., Briefly, hNPFFR1 or hNPFFR2 membranes (5 to 10 μg of proteins) were incubated (1 hr at 25° C.; 0.25 mL total volume) with 0.015 nM [D-Tyr1[125I], N-MePhe3]-NPFF (Hartmann Analytic GmbH) in 50 mM HEPES (pH 7.4), 1 mM CaCl2, 1 mM MgCl2 and 0.1% bovine serum albumin. Non-specific binding was determined in the presence of 10 μM RFRP-3. Incubation was terminated by rapid filtration through a 96-well GF/B unifilter apparatus (Perkin Elmer Life and Analytical Sciences, Courtaboeuf, France). Unifilters were washed five times with binding buffer, then dried for 1 h at 65° C. After addition of 40 μL scintillation cocktail (Microscint-O, Perkin Elmer) per well, bound radioactivity was determined on a TopCount scintillation counter (Perkin Elmer).

[2] = molecular target: T2, hNPFFR1 (Homo sapiens, UniProt Q9GZQ6); test: Radioligand binding competition, membranes from CHO cells expressing hNPFFR1; conditions: 0.015 nM [D-Tyr1[125I], N-MePhe3]-NPFF, 1 hr at 25° C.; for Ki: read-out: NPFF1-R Ki
T2 construct: expressed in transfected cells; membranes
T2 sequence (Q9GZQ6 whole entry): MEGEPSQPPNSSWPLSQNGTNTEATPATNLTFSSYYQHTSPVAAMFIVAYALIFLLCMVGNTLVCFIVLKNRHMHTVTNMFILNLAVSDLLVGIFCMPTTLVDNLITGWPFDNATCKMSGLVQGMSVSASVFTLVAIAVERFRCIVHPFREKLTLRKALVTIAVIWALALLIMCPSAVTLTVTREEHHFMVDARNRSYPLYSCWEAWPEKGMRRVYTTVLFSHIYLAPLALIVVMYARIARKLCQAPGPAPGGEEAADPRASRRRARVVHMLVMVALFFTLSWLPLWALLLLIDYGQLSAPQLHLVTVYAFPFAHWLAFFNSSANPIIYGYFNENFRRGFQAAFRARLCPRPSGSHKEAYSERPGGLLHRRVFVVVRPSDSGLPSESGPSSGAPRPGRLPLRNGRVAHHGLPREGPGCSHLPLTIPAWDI
Method: as §1

[3] = molecular target: T3, human NPFFR1 (hNPFFR1) receptor (Homo sapiens, UniProt Q9GZQ6); test: Human NPFFR1 evaluation using BRET biosensors in HEK-293 T cells; format: cell-based; conditions: hNPFFR1 in HEK-293 T cells, stimulated by EC80 RFRP-3, read-out: IC50 of antagonist activity
T3 construct: expressed in transfected cells; host or cells: HEK-293 T cells, transient co-transfection
T3 sequence (Q9GZQ6 whole entry): as above
Method: Compounds of the present invention were tested successively for their agonist and antagonist activities on human NPFFR1 (hNPFFR1) receptor transiently over-expressed in HEK-293 T cells. Compounds exert agonist activity if, by themselves in absence of neuropeptide RFRP-3 (also named NPVF) they activate hNPFFR1; and they exert antagonist activity if they decrease the action of RFRP-3 on the receptor. The assay used to measure compound activity is based on BRET (Bioluminescence Resonance Energy Transfer) biosensors and is designed to monitor the plasma membrane translocation of protein that interacts with specific Ga subunit. The specific effector (luciferase tagged: BRET donor) recruited at the membrane will be in close proximity to a plasma membrane anchor (GFP tagged: BRET acceptor) to induce a BRET signal (Ramdan et al, 2006, Chapter 5, Current Protocols in Neuroscience).
HEK-293 T cells are maintained in Dulbecco's Modified Eagle's Medium supplemented with 10% Foetal Calf Serum, 1% Penicillin/Streptomycin at 37° C./5% CO2. Cells are co-transfected using polyethylenimine (25 kDa linear) with four DNA plasmids encoding; hNPFFR1, GαoB, a Gi family specific intracellular effector fused to luciferase (BRET donor), a plasma membrane effector fused to GFP (BRET acceptor). After transfection, cells are cultured for 48 h at 37° C./5% CO2.
Receptor activity is detected by changes in BRET signal.
On the day of the assay, cells are detached using trypsin 0.05%, resuspended in assay buffer (1.8 mM CaCl2, 1 mM MgCl2, 2.7 mM KCl, 137 mM NaCl, 0.4 mM NaH2PO4, 5.5 mM D-Glucose, 11.9 mM NaHCO3, 25 mM Hepes) and seeded in 384 well plate at a density of 20,000 cells per well. Then, plates are equilibrated 3.5 hours at 37° C. before adding compounds.
Compounds and luciferase substrate are added to the cells using an automated device (Freedom Evo®, Tecan) and BRET readings are collected on EnVision (PerkinElmer) with specific filters (410 nm BW 80 nm, 515 nm BW 30 nm).
Agonist and antagonist activities of compounds are consecutively evaluated on the same cell plate. Agonist activity is first measured after 10 minutes incubation with compound alone on the cells. Then, cells are stimulated by an EC80 RFRP-3 concentration and luminescence is recorded for additional 10 minutes. EC80 RFRP-3 concentration is the concentration giving 80% of the maximal RFRP-3 response. Agonist or antagonist activities are evaluated in comparison to basal signals evoked by assay buffer or EC80 RFRP-3 alone, respectively.
For IC50 determination, a dose-response test is performed using 20 concentrations (ranging over 6 logs) of each compound. Dose-response curves are fitted using the sigmoidal dose-response (variable slope) analysis in GraphPad Prism software (GraphPad Software) and IC50 of antagonist activity is calculated. Dose-response experiments are performed in duplicate, in two independent experiments.

T1 sequence (Q9Y5X5 whole entry): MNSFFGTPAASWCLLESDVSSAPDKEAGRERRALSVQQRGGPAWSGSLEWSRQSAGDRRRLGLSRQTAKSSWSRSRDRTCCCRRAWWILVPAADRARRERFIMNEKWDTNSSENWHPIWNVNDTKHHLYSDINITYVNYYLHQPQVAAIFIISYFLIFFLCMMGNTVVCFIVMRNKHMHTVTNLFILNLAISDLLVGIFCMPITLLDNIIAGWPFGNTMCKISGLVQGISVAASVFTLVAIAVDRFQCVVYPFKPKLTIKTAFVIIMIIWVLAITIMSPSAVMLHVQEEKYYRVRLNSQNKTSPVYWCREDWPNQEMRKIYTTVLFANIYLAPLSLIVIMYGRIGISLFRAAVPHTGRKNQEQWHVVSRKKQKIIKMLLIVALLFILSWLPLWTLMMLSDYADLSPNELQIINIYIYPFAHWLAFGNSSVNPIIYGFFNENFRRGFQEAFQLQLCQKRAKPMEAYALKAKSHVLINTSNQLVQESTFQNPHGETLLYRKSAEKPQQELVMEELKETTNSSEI

Ki [1] [nM] | Ki [2] [nM] | IC50 [3] [nM] | NPFF2-R Ki (nM) [1] | NPFF1-R Ki (nM) [2] | Molecule
3300 | 1090 | – | – | – | CCc1cc(-c2cccc(Cl)c2Cl)c(N)nc1N [Compound 9b, 3-(2,3-dichlorophenyl)-5-ethylpyridine-2,6-diamine]
1900 | 250 | > 1000 | – | – | CC(C)Nc1nc(N)ccc1-c1cccc(Cl)c1Cl [Compound 5e, 3-(2,3-dichlorophenyl)-N2-isopropylpyridine-2,6-diamine]
5400 | 189 | – | – | – | Nc1ccc(CCc2ccccc2)c(N)n1 [Compound 11a, 3-phenethylpyridine-2,6-diamine]
4200 | 577 | > 1000 | – | – | Nc1ccc(-c2cccc(Cl)c2Cl)cn1 [Compound 6a, 5-(2,3-dichlorophenyl)pyridin-2-amine]
2200 | 79.2 | 500 to 1000 | – | – | CCNc1nc(N)ccc1-c1cccc(Cl)c1Cl [Compound 5b, 3-(2,3-dichlorophenyl)-N2-ethylpyridine-2,6-diamine]
2300 | 81.2 | > 1000 | – | – | CNc1nc(N)ccc1-c1cccc(Cl)c1Cl [Compound 5a, 3-(2,3-dichlorophenyl)-N2-methylpyridine-2,6-diamine]
1500 | 35.7 | 500 to 1000 | – | – | COc1ccccc1-c1ccc(N)nc1C(C)C [Compound 6h, 6-isopropyl-5-(2-methoxyphenyl)pyridin-2-amine]
> 50000 | 4080 | – | – | – | COc1cc(N)nc(N)c1-c1cccc(Cl)c1Cl [Compound 8a, 3-(2,3-dichlorophenyl)-4-methoxypyridine-2,6-diamine]
960 | 15.2 | 100 to 500 | – | – | CCc1nc(N)ccc1-c1ccccc1OC [Compound 6d, 6-ethyl-5-(2-methoxyphenyl)pyridin-2-amine]
1900 | 84 | > 1000 | – | – | Nc1ccc(-c2cccc(Cl)c2Cl)c(NCc2ccccc2)n1 [Compound 5d, N2-benzyl-3-(2,3-dichlorophenyl)pyridine-2,6-diamine]
6900 | 416 | – | – | – | CCCCNc1nc(N)ccc1-c1cccc(Cl)c1Cl [Compound 5c, N2-butyl-3-(2,3-dichlorophenyl)pyridine-2,6-diamine]
3200 | 1920 | – | – | – | Nc1ccc(-c2cccc(Cl)c2Cl)c(NCCN2CCCCC2)n1 [Compound 5h, 3-(2,3-dichlorophenyl)-N2-(2-(piperidin-1-yl)ethyl)pyridine-2,6-diamine]
18600 | 461 | > 1000 | – | – | COCc1nc(N)ccc1-c1ccccc1OC [Compound 6e, 6-(methoxymethyl)-5-(2-methoxyphenyl)pyridin-2-amine]
6300 | 440 | – | – | – | Nc1ccc(-c2cccc(Cl)c2Cl)c(N2CCCCC2)n1 [Compound 5i, 5-(2,3-dichlorophenyl)-6-(piperidin-1-yl)pyridin-2-amine]
– | – | – | ns | ns | COc1nc(N)ccc1-c1cccc(Cl)c1Cl [Compound 7a, 5-(2,3-dichlorophenyl)-6-methoxypyridin-2-amine]
– | 481 | – | ns | – | COCCNc1nc(N)ccc1-c1cccc(Cl)c1Cl [Compound 5g, 3-(2,3-dichlorophenyl)-N2-(2-methoxyethyl)pyridine-2,6-diamine]
800 | 424 | – | – | – | Nc1ccc(-c2cccc(Cl)c2Cl)c(NCCc2ccccc2)n1 [Compound 5f, 3-(2,3-dichlorophenyl)-N2-phenethylpyridine-2,6-diamine]
1800 | 3240 | – | – | – | Nc1nc(N)c(-c2cccc(Cl)c2Cl)cc1F [Compound 9a, 3-(2,3-dichlorophenyl)-5-fluoropyridine-2,6-diamine]

Continued, molecule first:

Molecule | Ki [1] [nM] | Ki [2] [nM] | IC50 [3] [nM] | NPFF2-R Ki (nM) [1] | NPFF1-R Ki (nM) [2]
Nc1ccc(-c2ccccc2-c2ccccc2)c(N)n1 [Compound 1r, 3-([1,1′-biphenyl]-2-yl)pyridine-2,6-diamine] | 700 | 20.7 | 100 to 500 | – | –
Nc1ccc(-c2ccc(Cl)c(Cl)c2)c(N)n1 [Compound 1n, 3-(3,4-dichlorophenyl) pyridine-2,6-diamine] | 2560 | 313 | > 1000 | – | –
Nc1ccc(-c2cc3ccccc3o2)c(N)n1 [Compound 3c, 3-(benzofuran-2-yl) pyridine-2,6-diamine] | 34000 | 524 | – | – | –
Nc1ccc(-c2ccccc2OC2CCCC2)c(N)n1 [Compound 2i, 3-(2-(cyclopentyloxy)phenyl)pyridine-2,6-diamine] | 280 | 4 | 100 to 500 | – | –
Nc1ccc(-c2ccco2)c(N)n1 [Compound 3a, 3-(furan-2-yl)pyridine-2,6-diamine] | 106000 | 5080 | – | – | –
Nc1ccc(-c2ccc(Cl)cc2Cl)c(N)n1 [Compound 1k, 3-(2,4-dichlorophenyl) pyridine-2,6-diamine] | 1180 | 28 | 100 to 500 | – | –
COc1ccc(-c2ccc(N)nc2N)c(OC)c1 [Compound 2m] | 1870 | 45.7 | > 1000 | – | –
Nc1ccc(-c2c(Cl)cccc2Cl)c(N)n1 [Compound 1m, 3-(2,6-dichlorophenyl) pyridine-2,6-diamine] | > 10000 | 94 | – | – | –
CCCCOc1ccccc1-c1ccc(N)nc1N [Compound 2e, 3-(2-butoxyphenyl)pyridine-2,6-diamine] | 1800 | 10.5 | 100 to 500 | – | –
CC(C)Oc1ccccc1-c1ccc(N)nc1N [Compound 2f, 3-(2-isopropoxyphenyl)pyridine-2,6-diamine] | 2100 | 11.3 | 100 to 500 | – | –
Nc1ccc(-c2ccc(Cl)cc2)c(N)n1 [Compound 1i, 3-(4-chlorophenyl)pyridine-2,6-diamine] | 8800 | 786 | > 1000 | – | –
Nc1ccc(-c2cccc(C(F)(F)F)c2Cl)c(N)n1 [Compound 1p, 3-(2-chloro-3-(trifluoromethyl)phenyl) pyridine-2,6-diamine] | 4600 | 65 | 100 to 500 | – | –
Cc1c(Cl)cccc1-c1ccc(N)nc1N [Compound 1q, 3-(3-chloro-2-methylphenyl) pyridine-2,6-diamine] | 7300 | 112 | – | – | –
Nc1ccc(-c2ccoc2)c(N)n1 [Compound 3b, 3-(furan-3-yl)pyridine-2,6-diamine] | – | – | – | n.s. | n.s.
3-(2-(piperidin-1-yl)ethoxy)pyridine-2,6-diamine [Compound 2j] | 450 | 33 | – | – | –
5-(2-methoxyphenyl)-6-(trifluoromethoxy)pyridin-2-amine [Compound 6f] | > 10000 | > 5000 | – | – | –
3-(2-methoxyethoxyphenyl)pyridine-2,6-diamine [Compound 2h] | 35700 | 26 | – | – | –
4′-methyl-[3,4′-bipyridine]-2,6-diamine [Compound 3f] | – | 515 | – | ns | –
